Data reported in patent US10479784B2, “Substituted pyrazin-2-amines as inhibitors of ATR kinase” (Vertex Pharmaceuticals Incorporated, priority 2008, dated 2019).

molecular target: full-length ATR (Homo sapiens (Human), UniProt Q13535); experiment: ATR Inhibition Assay (radioactive-phosphate incorporation); type: biochemical; conditions: read-out: ATR Ki
Protocol: Compounds were screened for their ability to inhibit ATR kinase using a radioactive-phosphate incorporation assay. Assays were carried out in a mixture of 50 mM Tris/HCl (pH 7.5), 10 mM MgCl2 and 1 mM DTT. Final substrate concentrations were […] [γ-33P]ATP (3mCi 33P ATP/mmol ATP, Perkin Elmer) and 800 μM target peptide ([…]).
Assays were carried out at 25° C. in the presence of 5 nM full-length ATR. An assay stock buffer solution was prepared containing all of the reagents listed above, with the exception of ATP and the test compound of interest. […] The plate was pre-incubated for 10 minutes at 25° C. and the reaction initiated by addition of 15 μL [γ-33P]ATP (final concentration 10 μM).
The reaction was stopped after […] by the addition of 30 μL 0.1M phosphoric acid containing 2 mM ATP. A multiscreen phosphocellulose filter 96-well plate (Millipore, Cat no. MAPHN0B50) was pretreated with 100 μL 0.2M phosphoric acid prior to the addition of 45 μL of the stopped assay mixture. […] After drying, 100 μL Optiphase ‘SuperMix’ liquid scintillation cocktail (Perkin Elmer) was added to the well prior to scintillation counting (1450 Microbeta Liquid Scintillation Counter, Wallac).
After removing mean background values for all of the data points, Ki(app) data were calculated from non-linear regression analysis of the initial rate data using the Prism software package (GraphPad Prism version 3.0cx for Macintosh, GraphPad Software, San Diego Calif., USA).

Chain of full-length ATR (Q13535 whole entry): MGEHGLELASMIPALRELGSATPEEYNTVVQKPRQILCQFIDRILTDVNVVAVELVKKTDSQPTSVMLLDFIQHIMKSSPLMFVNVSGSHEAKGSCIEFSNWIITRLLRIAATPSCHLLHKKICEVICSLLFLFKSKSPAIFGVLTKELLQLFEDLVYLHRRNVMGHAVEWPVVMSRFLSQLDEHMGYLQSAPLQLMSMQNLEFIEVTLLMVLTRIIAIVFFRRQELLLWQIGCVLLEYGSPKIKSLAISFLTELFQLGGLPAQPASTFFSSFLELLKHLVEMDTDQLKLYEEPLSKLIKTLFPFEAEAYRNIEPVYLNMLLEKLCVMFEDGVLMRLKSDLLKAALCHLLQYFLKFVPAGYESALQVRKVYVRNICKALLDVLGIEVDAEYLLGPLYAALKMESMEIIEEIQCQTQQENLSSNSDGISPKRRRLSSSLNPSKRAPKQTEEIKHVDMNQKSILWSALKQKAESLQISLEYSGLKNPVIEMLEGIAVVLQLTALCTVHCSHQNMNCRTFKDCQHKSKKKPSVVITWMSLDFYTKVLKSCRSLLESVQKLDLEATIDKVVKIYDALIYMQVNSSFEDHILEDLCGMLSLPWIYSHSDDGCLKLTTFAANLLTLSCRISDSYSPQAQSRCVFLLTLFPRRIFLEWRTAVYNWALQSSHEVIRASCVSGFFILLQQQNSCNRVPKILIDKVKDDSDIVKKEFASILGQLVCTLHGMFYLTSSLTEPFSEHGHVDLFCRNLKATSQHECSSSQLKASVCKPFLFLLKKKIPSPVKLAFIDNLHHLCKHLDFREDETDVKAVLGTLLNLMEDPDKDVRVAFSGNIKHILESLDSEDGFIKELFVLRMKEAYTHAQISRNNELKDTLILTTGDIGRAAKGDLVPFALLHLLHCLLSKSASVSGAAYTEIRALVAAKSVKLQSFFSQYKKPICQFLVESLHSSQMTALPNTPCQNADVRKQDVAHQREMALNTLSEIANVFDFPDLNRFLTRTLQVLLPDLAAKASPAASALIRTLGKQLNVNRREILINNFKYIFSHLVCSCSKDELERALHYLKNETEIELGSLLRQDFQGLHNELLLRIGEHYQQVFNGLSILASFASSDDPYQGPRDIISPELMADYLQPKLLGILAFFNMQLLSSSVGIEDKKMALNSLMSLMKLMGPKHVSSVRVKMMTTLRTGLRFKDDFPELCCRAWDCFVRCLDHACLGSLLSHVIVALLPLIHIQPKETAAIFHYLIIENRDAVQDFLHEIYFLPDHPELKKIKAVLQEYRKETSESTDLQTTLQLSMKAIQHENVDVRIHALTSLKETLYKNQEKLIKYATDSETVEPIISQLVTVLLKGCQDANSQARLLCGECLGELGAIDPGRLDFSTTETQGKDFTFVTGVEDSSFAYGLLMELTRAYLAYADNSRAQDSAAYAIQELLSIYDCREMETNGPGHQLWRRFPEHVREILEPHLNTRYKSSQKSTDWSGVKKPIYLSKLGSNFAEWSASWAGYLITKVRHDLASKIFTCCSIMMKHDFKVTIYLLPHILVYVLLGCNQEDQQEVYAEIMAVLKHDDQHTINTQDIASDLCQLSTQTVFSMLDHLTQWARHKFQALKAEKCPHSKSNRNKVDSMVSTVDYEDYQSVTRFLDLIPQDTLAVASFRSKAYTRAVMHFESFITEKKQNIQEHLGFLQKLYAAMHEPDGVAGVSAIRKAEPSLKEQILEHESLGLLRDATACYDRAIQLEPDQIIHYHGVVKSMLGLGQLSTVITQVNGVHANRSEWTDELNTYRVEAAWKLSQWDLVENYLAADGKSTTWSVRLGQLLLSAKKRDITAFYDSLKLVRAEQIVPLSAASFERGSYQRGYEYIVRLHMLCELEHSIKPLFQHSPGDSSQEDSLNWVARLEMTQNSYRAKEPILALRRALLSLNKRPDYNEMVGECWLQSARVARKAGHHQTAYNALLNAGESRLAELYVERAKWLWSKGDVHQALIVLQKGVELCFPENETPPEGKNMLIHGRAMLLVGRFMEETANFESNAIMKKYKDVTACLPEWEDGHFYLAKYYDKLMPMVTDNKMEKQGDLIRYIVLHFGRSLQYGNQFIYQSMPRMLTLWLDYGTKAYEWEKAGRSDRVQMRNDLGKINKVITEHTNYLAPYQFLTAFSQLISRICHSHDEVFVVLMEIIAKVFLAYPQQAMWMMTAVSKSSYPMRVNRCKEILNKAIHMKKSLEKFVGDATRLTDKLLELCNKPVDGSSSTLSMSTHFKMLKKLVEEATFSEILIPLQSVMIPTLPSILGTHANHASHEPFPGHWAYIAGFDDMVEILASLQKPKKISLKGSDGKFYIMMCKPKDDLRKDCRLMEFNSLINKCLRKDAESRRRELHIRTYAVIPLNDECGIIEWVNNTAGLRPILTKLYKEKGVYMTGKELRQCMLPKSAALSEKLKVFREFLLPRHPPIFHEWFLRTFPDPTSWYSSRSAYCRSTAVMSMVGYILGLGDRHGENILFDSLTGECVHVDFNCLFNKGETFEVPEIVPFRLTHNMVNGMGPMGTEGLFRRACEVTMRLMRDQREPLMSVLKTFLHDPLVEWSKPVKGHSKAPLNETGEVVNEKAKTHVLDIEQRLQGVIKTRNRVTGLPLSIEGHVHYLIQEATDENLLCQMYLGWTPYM

| SMILES | Ki [nM] |
| --- | --- |
| COCCN(C)C(=O)c1ccc(-c2cnc(N)c(C(=O)Nc3ccccc3)n2)cc1 [Compound I-45, 3-amino-6-(4-((2-methoxyethyl)(methyl)carbamoyl)phenyl)-N-phenylpyrazine-2-carboxamide] | 10 to 100 |
| Nc1ncc(-c2ccc(C(=O)NCCN3CCCC3)cc2)nc1C(=O)Nc1ccccc1 [Compound I-46, 3-amino-N-phenyl-6-(4-(2-(pyrrolidin-1-yl)ethylcarbamoyl)phenyl) pyrazine-2-carboxamide] | 100 to 5000 |
| Nc1ncc(-c2ccc(C(=O)NC3CCOCC3)cc2)nc1C(=O)Nc1ccccc1 [Compound I-47, 3-amino-N-phenyl-6-(4-(tetrahydro-2H-pyran-4-ylcarbamoyl)phenyl)pyrazine-2-carboxamide] | 10 to 100 |
| CN1CCC(NC(=O)c2cccc(-c3cnc(N)c(C(=O)Nc4ccccc4)n3)c2)CC1 [Compound I-48, 3-amino-6-(3-(1-methylpiperidin-4-ylcarbamoyl)phenyl)-N-phenylpyrazine-2-carboxamide] | 100 to 5000 |
| Nc1ncc(-c2ccc(C(=O)NCCN3CCCCC3)cc2)nc1C(=O)Nc1ccccc1 [Compound I-49, 3-amino-N-phenyl-6-(4-(2-(piperidin-1-yl)ethylcarbamoyl)phenyl) pyrazine-2-carboxamide] | 100 to 5000 |
| Nc1ncc(-c2cccc(C(=O)N3CCC(CO)CC3)c2)nc1C(=O)Nc1ccccc1 [Compound I-50, 3-amino-6-(3-(4-(hydroxymethyl)piperidine-1-carbonyl)phenyl)-N-phenylpyrazine-2-carboxamide] | 100 to 5000 |
| Nc1ncc(-c2ccc(C(=O)NC3CC3)cc2)nc1C(=O)Nc1ccccc1 [Compound I-51, 3-amino-6-(4-(cyclopropylcarbamoyl)phenyl)-N-phenylpyrazine-2-carboxamide] | 10 to 100 |
| CN(C)CCN(C)C(=O)c1cccc(-c2cnc(N)c(C(=O)Nc3ccccc3)n2)c1 [Compound I-52, 3-amino-6-(3-((2-(dimethylamino)ethyl)(methyl)carbamoyl)phenyl)-N-phenylpyrazine-2-carboxamide] | 100 to 5000 |
| Nc1ncc(-c2cccc(C(=O)N3CCNCC3)c2)nc1C(=O)Nc1ccccc1 [Compound I-53, 3-amino-N-phenyl-6-(3-(piperazine-1-carbonyl)phenyl) pyrazine-2-carboxamide] | 100 to 5000 |
| Nc1ncc(-c2cccc(C(=O)NCCN3CCCC3)c2)nc1C(=O)Nc1ccccc1 [Compound I-54, 3-amino-N-phenyl-6-(3-(2-(pyrrolidin-1-yl)ethylcarbamoyl)phenyl)pyrazine-2-carboxamide] | 100 to 5000 |
| Nc1ncc(-c2cccc(C(=O)N3CCC(N4CCCC4)CC3)c2)nc1C(=O)Nc1ccccc1 [Compound I-56, 3-amino-N-phenyl-6-(3-(4-(pyrrolidin-1-yl)piperidine-1-carbonyl)phenyl)pyrazine-2-carboxamide] | 100 to 5000 |
| N#CCCN1CCN(C(=O)c2cccc(-c3cnc(N)c(C(=O)Nc4ccccc4)n3)c2)CC1 [Compound I-58, 3-amino-6-(3-(4-(2-cyanoethyl)piperazine-1-carbonyl)phenyl)-N-phenylpyrazine-2-carboxamide] | 100 to 5000 |
| CN1CCN(C(=O)c2cccc(-c3cnc(N)c(C(=O)Nc4ccccc4)n3)c2)CC1 [Compound I-59, 3-amino-6-(3-(4-methylpiperazine-1-carbonyl)phenyl)-N-phenylpyrazine-2-carboxamide] | 100 to 5000 |
| COC1CN(C(=O)c2cccc(-c3cnc(N)c(C(=O)Nc4ccccc4)n3)c2)C1 [Compound I-60, 3-amino-6-(3-(3-methoxyazetidine-1-carbonyl)phenyl)-N-phenylpyrazine-2-carboxamide] | 100 to 5000 |
| Nc1ncc(-c2cccc(C(=O)NCCN3CCCCC3)c2)nc1C(=O)Nc1ccccc1 [Compound I-61, 3-amino-N-phenyl-6-(3-(2-(piperidin-1-yl)ethylcarbamoyl)phenyl) pyrazine-2-carboxamide] | 100 to 5000 |
| NC(=O)C1CCN(C(=O)c2cccc(-c3cnc(N)c(C(=O)Nc4ccccc4)n3)c2)CC1 [Compound I-62, 3-amino-6-(3-(4-carbamoylpiperidine-1-carbonyl)phenyl)-N-phenylpyrazine-2-carboxamide] | 100 to 5000 |
| Nc1ncc(-c2cccc(C(=O)N3CCCC3)c2)nc1C(=O)Nc1ccccc1 [Compound I-63, 3-amino-N-phenyl-6-(3-(pyrrolidine-1-carbonyl)phenyl)pyrazine-2-carboxamide] | 100 to 5000 |
| CN1CCC(NC(=O)c2ccc(-c3cnc(N)c(C(=O)Nc4ccccc4)n3)cc2)CC1 [Compound I-64, 3-amino-6-(4-(1-methylpiperidin-4-ylcarbamoyl)phenyl)-N-phenylpyrazine-2-carboxamide] | 100 to 5000 |

| SMILES | Ki [nM] |
| --- | --- |
| Nc1ncc(-c2cccc(C(=O)N3CCC(O)C3)c2)nc1C(=O)Nc1ccccc1 (stereo not drawn) [Compound I-65, 3-amino-6-(3-(3-hydroxypyrrolidine-1-carbonyl)phenyl)-N-phenylpyrazine-2-carboxamide] | 100 to 5000 |
| Nc1ncc(-c2cccc(C(=O)NC3CCOCC3)c2)nc1C(=O)Nc1ccccc1 [Compound I-66, 3-amino-N-phenyl-6-(3-(tetrahydro-2H-pyran-4-ylcarbamoyl)phenyl) pyrazine-2-carboxamide] | 10 to 100 |
| COCCN(C)C(=O)c1cccc(-c2cnc(N)c(C(=O)Nc3ccccc3)n2)c1 [Compound I-67, 3-amino-6-(3-((2-methoxyethyl)(methyl)carbamoyl)phenyl)-N-phenylpyrazine-2-carboxamide] | 10 to 100 |
| CN(C)CCN(C)C(=O)c1ccc(-c2cnc(N)c(C(=O)Nc3ccccc3)n2)cc1 [Compound I-68, 3-amino-6-(4-((2-(dimethylamino)ethyl)(methyl)carbamoyl)phenyl)-N-phenylpyrazine-2-carboxamide] | 10 to 100 |
| Nc1ncc(-c2ccc(C(=O)NCC3CCOCC3)cc2)nc1C(=O)Nc1ccccc1 [Compound I-69, 3-amino-N-phenyl-6-(4-((tetrahydro-2H-pyran-4-yl)methylcarbamoyl)phenyl)pyrazine-2-carboxamide] | 100 to 5000 |
| Nc1ncc(-c2ccc(C(=O)N3CCCC3)cc2)nc1C(=O)Nc1ccccc1 [Compound I-70, 3-amino-N-phenyl-6-(4-(pyrrolidine-1-carbonyl)phenyl)pyrazine-2-carboxamide] | 10 to 100 |
| Nc1ncc(-c2ccc(C(=O)N3CCC(N4CCCC4)CC3)cc2)nc1C(=O)Nc1ccccc1 [Compound I-71, 3-amino-N-phenyl-6-(4-(4-(pyrrolidin-1-yl)piperidine-1-carbonyl)phenyl) pyrazine-2-carboxamide] | 10 to 100 |
| Nc1ncc(-c2ccc(C(=O)N3CCC3)cc2)nc1C(=O)Nc1ccccc1 [Compound I-72, 3-amino-6-(4-(azetidine-1-carbonyl)phenyl)-N-phenylpyrazine-2-carboxamide] | 10 to 100 |
| CN1CCN(C(=O)c2ccc(-c3cnc(N)c(C(=O)Nc4ccccc4)n3)cc2)CC1 [Compound I-73, 3-amino-6-(4-(4-methylpiperazine-1-carbonyl)phenyl)-N-phenylpyrazine-2-carboxamide] | 10 to 100 |
| Nc1ncc(-c2ccc(C(=O)N3CCNCC3)cc2)nc1C(=O)Nc1ccccc1 [Compound I-74, 3-amino-N-phenyl-6-(4-(piperazine-1-carbonyl)phenyl)pyrazine-2-carboxamide] | 10 to 100 |
| Nc1ncc(-c2ccc(C(=O)N3CCC(O)C3)cc2)nc1C(=O)Nc1ccccc1 (stereo not drawn) [Compound I-75, 3-amino-6-(4-(3-hydroxypyrrolidine-1-carbonyl)phenyl)-N-phenylpyrazine-2-carboxamide] | 10 to 100 |
| NC(=O)C1CCN(C(=O)c2ccc(-c3cnc(N)c(C(=O)Nc4ccccc4)n3)cc2)CC1 [Compound I-77, 3-amino-6-(4-(4-carbamoylpiperidine-1-carbonyl)phenyl)-N-phenylpyrazine-2-carboxamide] | 10 to 100 |
| Nc1ncc(-c2ccc(C(=O)N3CCCCC3)cc2)nc1C(=O)Nc1ccccc1 [Compound I-78, 3-amino-N-phenyl-6-(4-(piperidine-1-carbonyl)phenyl)pyrazine-2-carboxamide] | 10 to 100 |
| Nc1ncc(-c2ccc(C(=O)N3CCC(CO)CC3)cc2)nc1C(=O)Nc1ccccc1 [Compound I-79, 3-amino-6-(4-(4-(hydroxymethyl)piperidine-1-carbonyl)phenyl)-N-phenylpyrazine-2-carboxamide] | 10 to 100 |
| CN(C)C1CCN(C(=O)c2ccc(-c3cnc(N)c(C(=O)Nc4ccccc4)n3)cc2)CC1 [Compound I-80, 3-amino-6-(4-(4-(dimethylamino)piperidine-1-carbonyl)phenyl)-N-phenylpyrazine-2-carboxamide] | 10 to 100 |
| N#CCCN1CCN(C(=O)c2ccc(-c3cnc(N)c(C(=O)Nc4ccccc4)n3)cc2)CC1 [Compound I-81, 3-amino-6-(4-(4-(2-cyanoethyl)piperazine-1-carbonyl)phenyl)-N-phenylpyrazine-2-carboxamide] | ≤ 10 |
| Nc1ncc(-c2cccnc2)nc1C(=O)Nc1cccc2cc[nH]c12 [Compound I-83, 3-amino-N-(1H-indol-7-yl)-6-(pyridin-3-yl)pyrazine-2-carboxamide] | 100 to 5000 |
| COc1ccc(NC(=O)c2nc(-c3cccnc3)cnc2N)cc1 [Compound I-84, 3-amino-N-(4-methoxyphenyl)-6-(pyridin-3-yl)pyrazine-2-carboxamide] | 100 to 5000 |
